Laboratory results as given in PMC7016953 (Cells, 2020).

Assays:
hTRPC6-YFP = test system: T1, hTRPC6-YFP; assay: Fluo-4 Ca2+ influx assay in HEK293 cells stably expressing TRPC6; format: cell-based, human; settings: for effect on TRPC6: fluo-4 concentration response analysis
T1 construct: expressed in transfected cells

mTRPC4ß-YFP = test system: T2, mTRPC4ß-YFP; assay: Selectivity profiling, fluo-4 [Ca2+]i response, TRPC4; format: cell-based, mouse; settings: 100 µM
T2 construct: expressed in transfected cells
Description: (§1) Human embryonic kidney 293 (HEK293) cells were stably transfected with expression plasmids that encode hTRPC3-YFP, hTRPC6-YFP, hTRPC7-YFP, mTRPC4ß-YFP, rTRPV1-CFP, rTRPV2-YFP, rTRPV3-YFP, mTRPV4-YFP, or hTRPM2 as previously described. Cell lines were cultured in Earle’s minimum essential medium (MEM; Sigma, Munich, Germany), supplemented with 10% fetal calf serum (Gibco Thermo Fisher Scientific, Darmstadt, Germany), 2 mM L-glutamine, and required concentrations of geneticin in a range of 0.4–1 mg/mL. A HEK293mTRPC5-YFP cell line was maintained and induced as described before. […] For electrophysiological and single cell [Ca^2+]i imaging experiments, PC12 cells were plated onto 25 mm poly-L-lysine-coated glass coverslips and measured 24–48 h after seeding. […]
(§2) The primary compound screen and the generation of concentration response curves in HEK293 cells or in PC12 cells were performed by using a custom-made fluorescence plate imager built into a robotic liquid handling station equipped with a 96-tip multichannel head (Freedom Evo 150, Tecan, Männedorf, Switzerland) as described previously. […] Plates were mounted on the imager, and fluorescence signals were recorded with a cooled Zyla 5.5 camera (Andor, Belfast, UK) through a 515 nm long pass filter. […] When inhibitory potencies were evaluated, a second pipetting step with the respective reference agonist was performed. […]

mTRPM3α2 = assay: Selectivity profiling, fluo-4 [Ca2+]i response, TRPM3; format: cell-based, mouse; settings: 100 µM
Description: as §1, §2

rTRPV1-CFP = test system: T3, rTRPV1-CFP; assay: Selectivity profiling, fluo-4 [Ca2+]i response, TRPV1; format: cell-based, rat; settings: 100 µM
T3 construct: expressed in transfected cells
Description: as §1, §2

rTRPV3-YFP = test system: T4, rTRPV3-YFP; assay: Selectivity profiling, fluo-4 [Ca2+]i response, TRPV3; format: cell-based, rat; settings: 100 µM
T4 construct: expressed in transfected cells
Description: as §1, §2

TRPC7 = test system: T5, TRPC7; assay: Whole-cell patch-clamp recordings in HEK TRPC7-YFP cells; format: cell-based, human; settings: 100 µM artemisinin
T5 construct: expressed in transfected cells
Description: The recordings of TRPC3, TRPC6, or TRPC7 membrane currents in HEK293 or PC12 cells were realized by using a Multiclamp 700B amplifier with a Digidata 1440A digitizer controlled by the PClamp 10 software (all Molecular Devices, Sunnyvale, CA, U.S.A.). Recordings were obtained at room temperature either in the whole-cell or in an outside-out configuration as indicated. Cells were seeded as described above, but at lower density, mounted in a chamber (Warner Instruments, Hamden, CT; U.S.A.), placed onto the stage of an inverted microscope, and perfused with required solution. The standard extracellular solution contained 140 mM NaCl, 5 mM CsCl, 2 mM MgCl2, 1 mM CaCl2, 10 mM HEPES, and 0.035% BSA adjusted to pH 7.4 with NaOH. The composition of standard intracellular solution was 140 mM CsCl, 1 mM MgCl2, 5 mM EGTA, and 10 mM HEPES adjusted to pH 7.25 with CsOH; the osmolarity was 295 mOsm l^−1. In outside-out measurements, the pipette solution contained 5 mM EGTA and 1.1 mM CaCl2 to achieve a calculated free Ca^2+ concentration of 100 nM.
Patch pipettes were pulled from borosilicate glass capillaries BG150F-8P (Science Products, Hofheim, Germany) with a PIP6 pipette puller (HEKA Elektronik, Lambrecht, Germany). […] In all whole-cell measurements, the series resistance was lower than 13 MΩ, and compensated by 70%. […]

`C[C@@H]1CC[C@H]2[C@@H](C)C(=O)O[C@@H]3O[C@@]4(C)CC[C@@H]1[C@]32OO4` [artemisinin] was tested, and the “effect on TRPC6” value (hTRPC6-YFP) was “marked preference to activate TRPC3, but not the closely related TRPC6 channel”, the “effect on TRPC6” value (hTRPC6-YFP; listed as Artemisinin) was “rather inhibits TRPC6” and the “signal in counterscreen with TRPC6-expressing cells” value (hTRPC6-YFP; primary screen, 20 µM) was “no signals”. The “[Ca2+]i response, TRPC4” value (mTRPC4ß-YFP) was “none of the cell lines responded”, the “[Ca2+]i response, TRPM3” value (mTRPM3α2) was “none of the cell lines responded” and the “[Ca2+]i response, TRPV1” value (rTRPV1-CFP) was “none of the cell lines responded”. For the same compound, the “[Ca2+]i response, TRPV3” value (rTRPV3-YFP) was “none of the cell lines responded” and the “ionic currents in TRPC7-expressing HEK cells” value (TRPC7) was “only weakly enhanced”.
